# In article PMC3577359 (Biochemistry, 2013):
# Where “and” joins values, the source holds several entries; their conditions need not be identical. Equal entries are not always repeated. Where two headings read alike, the source gives them in different places.
# What was measured:
# [1] = target: AusA A2 domain (Staphylococcus aureus, UniProt A0A0H3JX00); assay: ATP–PPi exchange kinetic parameters of AusA, A2 domain; type: biochemical
# [2] = target: holo–AusA (Staphylococcus aureus, UniProt A0A0H3JX00); conditions: for kcat/KM, fold lower than that of L-Tyr: fixed saturating L-Val, ATP, NADPH
# [3] = target: AusA A1 domain (Staphylococcus aureus, UniProt A0A0H3JX00); assay: ATP–PPi exchange kinetic parameters of AusA, A1 domain; type: biochemical
# [4] = target: AusA A1/A2 (Staphylococcus aureus, UniProt A0A0H3JX00); assay: ATP–PPi exchange kinetic parameters of AusA, A1/A2 aggregate; type: biochemical
# [5] = test system: holo–AusA reductase domain; type: biochemical, Staphylococcus aureus; conditions: for Aureusimine-A Formation kobs / NADPH Consumption kobs: ATP; for Aureusimine-A Formation kobs: LC-MS
# [6] = target: A2–T2–R (Staphylococcus aureus, UniProt A0A0H3JX00); assay: ATP–PPi exchange assay, inhibition of A2–T2–R tridomain; type: biochemical
# [7] = target: AusA (A1–T1–C–A2–T2–R) (Staphylococcus aureus, UniProt A0A0H3JX00); type: biochemical
# [8] = target: A1–T1 (Staphylococcus aureus, UniProt A0A0H3JX00); assay: ATP–PPi exchange assay, inhibition of A1–T1 didomain; type: biochemical
# [9] = cited from earlier work
# [10] = test system: calpain; conditions: cited from earlier work
# [11] = test system: CC[C@H](C)[C@H](N)C(=O)O; assay: ATP–PPi exchange kinetic parameters of AusA, A1 domain; type: biochemical, Staphylococcus aureus; conditions: other: varied amino acid, non-varied ATP 3 mM; apparent; pH 8.0; 37.0 °C
# [12] = test system: CC(C)[C@H](N)C(=O)O; assay: as above; type: biochemical, Staphylococcus aureus; conditions: other: varied amino acid, non-varied ATP 3 mM; apparent; pH 8.0; 37.0 °C
# [13] = test system: CC(C)C[C@H](N)C(=O)O; assay: ATP–PPi exchange kinetic parameters of AusA, A1/A2 aggregate; type: biochemical, Staphylococcus aureus; conditions: other: non-varied ATP 3 mM; aggregate of A1 and A2; pH 8.0; 37.0 °C
# [14] = test system: Nc1ncnc2c1ncn2[C@@H]1O[C@H](COP(=O)(O)OP(=O)(O)OP(=O)(O)O)[C@@H](O)[C@H]1O; assay: ATP–PPi exchange kinetic parameters of AusA, A2 domain; type: biochemical, Staphylococcus aureus; conditions: other: varied ATP, non-varied L-Phe 30 mM; pH 8.0; 37.0 °C
# [15] = test system: N[C@@H](Cc1ccccc1)C(=O)O; assay: as above; type: biochemical, Staphylococcus aureus; conditions: other: varied amino acid, non-varied ATP 3 mM; apparent; pH 8.0; 37.0 °C
# [16] = test system: Nc1ccc(C[C@H](N)C(=O)O)cc1; assay: as above; type: biochemical, Staphylococcus aureus; conditions: other: varied amino acid, non-varied ATP 3 mM; apparent; pH 8.0; 37.0 °C
# [17] = test system: N[C@@H](Cc1ccc(O)cc1)C(=O)O; assay: as above; type: biochemical, Staphylococcus aureus; conditions: other: varied amino acid, non-varied ATP 3 mM; apparent; pH 8.0; 37.0 °C
# [18] = test system: Nc1ncnc2c1ncn2[C@@H]1O[C@H](COP(=O)(O)OP(=O)(O)OP(=O)(O)O)[C@@H](O)[C@H]1O; assay: purified protein, by the assay type; conditions: other: ATP varied, pH 8.0
# [19] = substrates L-Val, NADPH (no L-Tyr)
molecule,measurement,setting,value
"Nc1ccc(C[C@H](N)C(=O)O)cc1 [L-4Aph, L-4-aminophenylalanine]",decrease in kcat relative to L-Tyr,[1],30%
same,increase in KM relative to L-Tyr,[1],31 fold
same,"kcat/KM, fold lower than that of L-Tyr",[2],17 fold
CC[C@H](C)[C@H](N)C(=O)O [L-Ile],"exchange rate, fold lower than with L-Val",[3]; in the presence of Phe-AMS,~10 fold
CC(C)C[C@H](N)C(=O)O [L-Leu],"kcat/KM, fold less than the best substrates",[4],more than 200 fold
same,"kcat/KM, fold lower than that of L-Tyr",[2],302 fold
N[C@@H](Cc1ccccc1)C(=O)O [L-Phe],"kcat/KM, fold lower than that of L-Tyr",[2],2.8 fold
"CC(C)[C@H](N)C(=O)O [L-Val, L-Valine]","kcat/KM, fold greater than L-Ile",[3],49 fold
NC(=O)C1=CN([C@@H]2O[C@H](COP(=O)(O)OP(=O)(O)OC[C@H]3O[C@@H](n4cnc5c(N)ncnc54)[C@H](O)[C@@H]3O)[C@@H](O)[C@H]2O)C=CC1 [NADH],cofactor use by AusA,[5]; data not shown,unable to use
"Nc1ncnc2c1ncn2[C@@H]1O[C@H](COS(=O)(=O)NC(=O)[C@@H](N)Cc2ccccc2)[C@@H](O)[C@H]1O [Phe-AMS, 5′-O-[N-(phenylalanyl)sulfamoyl]adenosine]",Ki,[6],< 4 nM
same,selectivity factor (A2 over A1–T1),[6],> 10^4
same,Ki,[7],0.8 ± 0.5 nM
same,effect on amino acid-dependent ATP–PPi exchange activity,"[7]; 100 μM Phe-AMS, with L-Phe, L-4Aph, L-Tyr and L-Met",eliminates the enzymatic activity
same,consumption of NADPH with the A2-specific inhibitor added,"[5]; L-Tyr reaction, data not shown",not observed
same,Ki,[8],> 100000 nM
same,inhibition of A1–T1,[8]; up to 100 μM,little inhibition
"CC(C)[C@H](N)C(=O)NS(=O)(=O)OC[C@H]1O[C@@H](n2cnc3c(N)ncnc32)[C@H](O)[C@@H]1O [Val-AMS, 5′-O-[N-(valinyl)sulfamoyl]adenosine]",Ki,[6],10000 nM
same,Ki,[7],44 ± 7 nM
same,activity reduction relative to the uninhibited control,"[7]; 100 μM Val-AMS, with L-Tyr, L-Phe, L-4Aph and L-Leu, off-target inhibition of A2",more than 2 fold
same,effect on amino acid-dependent ATP–PPi exchange activity,"[7]; 100 μM Val-AMS, with L-Val, L-Ile, L-Cle, L-Ala, L-Cys, L-Tle and L-Met",eliminated
same,Ki,[8],63 ± 5 nM
same,selectivity factor Ki(A2-T2-R)/Ki(A1-T1),[8],158
"CC(C)c1ncc(Cc2ccc(O)cc2)[nH]c1=O [compound 1, aureusimine-A]",Aureusimine-A Formation kobs,"[5]; substrates L-Tyr, NADPH (no L-Val)",0 min⁻¹
same,Aureusimine-A Formation kobs,[5]; [19],0 min⁻¹
same,Aureusimine-A Formation kobs,"[5]; substrates L-Val, L-Tyr, NADPH, listed as Aureusimine-A",0.28 ± 0.01 min⁻¹
same,Aureusimine-A Formation kobs,"[5]; substrates L-Val, L-Tyr, NADPH, listed as aureusimine-A",0.28 min⁻¹
"CC(C)c1ncc(Cc2ccccc2)[nH]c1=O [compound 2, aureusimine-B]",antibacterial activity,[9],no antibacterial activity was observed
same,calpain inhibition activity,[10],~ 1 μM
AusA A1 domain (Staphylococcus aureus subsp. aureus Mu50),Km,[11],11.9 ± 0.9 mM
same,kcat,[11],0.565 ± 0.0183 s⁻¹
same,kcat/Km,[11],47 ± 4 M⁻¹ s⁻¹
same,Km,[12],3.3 ± 0.1 mM
same,kcat,[12],7.683 ± 0.05 s⁻¹
same,kcat/Km,[12],2330 ± 72 M⁻¹ s⁻¹
AusA A1/A2 (Staphylococcus aureus subsp. aureus Mu50),Km,[13],24 ± 3 mM
same,kcat,[13],0.248 ± 0.0167 s⁻¹
same,kcat/Km,[13],10 M⁻¹ s⁻¹ and 10.3 M⁻¹ s⁻¹
AusA A2 domain (Staphylococcus aureus subsp. aureus Mu50),Km,[14],3.0 ± 0.5 mM
same,kcat,[14],1.05 ± 0.117 s⁻¹
same,kcat/Km,[14],350 ± 70 M⁻¹ s⁻¹
same,Km,[15],2.1 ± 0.1 mM
same,kcat,[15],0.675 ± 0.01 s⁻¹
same,kcat/Km,[15],321 ± 16 M⁻¹ s⁻¹
same,Km,[16],31 ± 1 mM
same,kcat,[16],1.53 ± 0.0333 s⁻¹
same,kcat/Km,[16],49 ± 2 M⁻¹ s⁻¹
same,Km,[17],1.0 ± 0 mM
same,kcat,[17],2.15 ± 0.0167 s⁻¹
same,kcat/Km,[17],2150 ± 17 M⁻¹ s⁻¹
NADPH,NADPH Consumption kobs,[5]; [19],0 min⁻¹
same,NADPH Consumption kobs,"[5]; substrates L-Val, L-Tyr, NADPH, 80 nM holo–AusA, ambient temperature",2.01 min⁻¹ and 2.01 ± 0.05 min⁻¹
same,kobs,"[2]; at 0.1 mM NADPH, L-Val, L-Tyr, ATP non-varied",0.39 min⁻¹
holo–AusA (Staphylococcus aureus subsp. aureus Mu50),Km,[18]; L-Leu as the non-varied amino acid,9.7 mM
same,Km,[18]; L-Tyr as the non-varied amino acid,0.1 mM
